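The compound was tested at five concentrations on cells cultured in 96-well plates, with a 48-hour exposure period. At the GI50, growth is halved.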 Calls of active or inactive are those of the source. No stated cut-off is given here; in the data, active = GI50 up to about 1.1 µM and inactive = higher. Starred links: 1 amine or outer side, 2 acyl side, 3 side chain; linkers in the order of their positions; H or OH if unused. Positions of bridges follow the written chain, without caps; N, C: chain ends. Non-standard residues stand in square brackets, D forms with d. Residues, ends and D or L forms follow the SMILES beside them. Chains are numbered I, II in the order given. Actinocin(1to9) = Cc1c2oc3c(C)ccc(C(=O)[*:2])c3nc-2c(C(=O)[*:1])c(N)c1=O; aThr = C[C@H](O)[C@H](N)C(=O)O; NMeV = CN[C@H](C(=O)O)C(C)C; Sar = CNCC(=O)O

Here are results for three molecules from ChEMBL document CHEMBL1201862, “PubChem BioAssay data set” (2004).

Holding throughout (experiment): NCI anticancer screen, dose series, 48 h
The test system of experiment [1] is OVCAR-4.
Experiment [2] has as its system MDA-N.
In experiment [3] the test system is Hs-578T.
Experiment [4] has as its system UACC-257.
For experiment [5], the system named is NCI-H226.
The test system of experiment [6] is SNB-19.
For experiment [7], the system named is HL-60.
Experiment [8] relates to DU-145.
The test system of experiment [9] is TK-10.
The subject of experiment [10] is NCI-H460.
For experiment [11], the system named is RPMI-8226.
Experiment [12] has as its system HOP-18.
In experiment [13] the test system is BT-549.
The test system of experiment [14] is SK-OV-3.
Experiment [15] deals with U-251.
Experiment [16] concerns HOP-92.
Experiment [17] has as its system SN12C.
For experiment [18], the system named is Malme-3M.
In experiment [19] the test system is OVCAR-3.
In experiment [20] the test system is SNB-75.

On to `COc1ccc(-c2nc(N)n(C)c2SSc2c(-c3ccc(OC)cc3)nc(N)n2C)cc1`, for which the GI50 in [1] is 6.59 µM (inactive); in [2] it was 2.63 µM (inactive); in [3], 9.16 µM (inactive); in experiment [4], 5.96 µM (inactive); in experiment [5], 17.4 µM (inactive); in [6], 12.9 µM (inactive). Also, the GI50 was 2.59 µM (inactive) in [7]; 17.3 µM (inactive) in experiment [8]; 14.5 µM (inactive) in experiment [9]; 20.8 µM (inactive) in experiment [10]; 2.69 µM (inactive) in experiment [11]; 5.57 µM (inactive) in [12]. Besides, the GI50 was 2.32 µM (inactive) in experiment [13]; 18.6 µM (inactive) in experiment [14]; 13 µM (inactive) in experiment [15]; 2.28 µM (inactive) in experiment [16]; 11.3 µM (inactive) in experiment [17]; 9.42 µM (inactive) in [18]. Further, the GI50 was 7.23 µM (inactive) in [19] and 3.34 µM (inactive) in experiment [20].
As for `Cc1ccc(OC(=O)N2C/C(=C\c3ccccc3)C(=O)/C(=C/c3ccccc3)C2)cc1`, the GI50 in experiment [1] was 23.5 µM (inactive); in experiment [2] it was 4.02 µM (inactive); in experiment [3] it was 20.9 µM (inactive); in experiment [4] it was 40.6 µM (inactive); in [5], 56.5 µM (inactive); in experiment [6], 43.5 µM (inactive). The GI50 in [7] was 3.84 µM (inactive); in experiment [8], > 100 µM (inactive); in experiment [9], 32.1 µM (inactive); in experiment [10] it was 53 µM (inactive); in experiment [11] it was 0.403 µM (active); in [12] it was > 46.2 µM (inactive). The GI50 was 29 µM (inactive) in experiment [13]; 41.3 µM (inactive) in experiment [14]; 9.25 µM (inactive) in [15]; > 100 µM (inactive) in [16]; 24.8 µM (inactive) in experiment [17]; > 76 µM (inactive) in experiment [18]. The GI50 in experiment [19] is 25.6 µM (inactive); in [20], 23 µM (inactive).
As for `Cc1c2oc3c(C)ccc(C(=O)N[C@@H]4C(=O)N[C@H](C(C)C)C(=O)N5CCC[C@H]5C(=O)N(C)CC(=O)N(C)[C@@H](C(C)C)C(=O)O[C@H]4C)c3nc-2c(C(=O)N[C@@H]2C(=O)N[C@H](C(C)C)C(=O)N3CCC[C@H]3C(=O)N(C)CC(=O)N(C)[C@@H](C(C)C)C(=O)O[C@H]2C)c(N)c1=O` (I: [aThr][dV]P[Sar][NMeV] / II: [aThr][dV]P[Sar][NMeV]; ester I:1-I:C, II:1-II:C; linker I:N-II:N via Actinocin(1to9)), the GI50 was 0.00583 µM (active) in [1]; 0.000631 µM (active) in experiment [2]; 0.00187 µM (active) in [3]; 0.00255 µM (active) in experiment [4]; 0.00195 µM (active) in [5]; 0.00161 µM (active) in experiment [6]. In addition, the GI50 in experiment [7] was 0.00231 µM (active); in experiment [8] it was 0.00393 µM (active); in [9] it was 0.0149 µM (active); in [10], 0.000424 µM (active); in [11] it was 0.00061 µM (active); in [12], 0.00611 µM (active). Also, the GI50 in experiment [13] is 0.00169 µM (active); in experiment [14], 0.00869 µM (active); in experiment [15], 0.000611 µM (active); in experiment [16], 0.00314 µM (active); in [17], 0.00185 µM (active); in experiment [18], 0.00119 µM (active). In addition, the results for the GI50 in experiment [19] and in experiment [20] were 0.00361 µM (active) and 0.0023 µM (active), respectively.
